Experimental data as given in BigSolDB 2.1.

CC(=O)C1C(=O)C=C(C)OC1=O (centres undefined)
Details | solubility (mole fraction)
in 2-butanone, 288.35 K | 0.0125
in 2-butanone, 292.15 K | 0.0153
in 2-butanone, 296.45 K | 0.0165
in 2-butanone, 300.35 K | 0.0196
in 2-butanone, 304.05 K | 0.0227
in 2-butanone, 308.05 K | 0.0285
in 2-butanone, 312.15 K | 0.0315
in 2-butanone, 315.75 K | 0.037
in DMAc, 288.35 K | 0.0941
in DMAc, 292.15 K | 0.111
in DMAc, 296.45 K | 0.12
in DMAc, 300.45 K | 0.135
in DMAc, 304.45 K | 0.15
in DMAc, 308.25 K | 0.168
in DMAc, 312.15 K | 0.19
in DMAc, 316.35 K | 0.205
in DMF, 288.5 K | 0.0744
in DMF, 292.45 K | 0.0857
in DMF, 296.35 K | 0.093
in DMF, 299.95 K | 0.105
in DMF, 304.45 K | 0.123
in DMF, 307.85 K | 0.139
in DMF, 312.35 K | 0.162
in DMF, 315.85 K | 0.181
in DMSO, 288.15 K | 0.0267
in DMSO, 292.15 K | 0.0314
in DMSO, 296.15 K | 0.0383
in DMSO, 300.15 K | 0.0462
in DMSO, 304.15 K | 0.0544
in DMSO, 308.15 K | 0.0599
in DMSO, 312.15 K | 0.0738
in DMSO, 316.15 K | 0.0874
in acetone, 288.15 K | 0.0477
in acetone, 291.85 K | 0.0547
in acetone, 296.15 K | 0.0587
in acetone, 300.25 K | 0.0695
in acetone, 304.15 K | 0.0812
in acetone, 308.15 K | 0.0964
in acetone, 312.05 K | 0.111
in acetone, 316.25 K | 0.13
in acetonitrile, 288.35 K | 0.039
in acetonitrile, 292.35 K | 0.0489
in acetonitrile, 296.25 K | 0.0557
in acetonitrile, 300.35 K | 0.0634
in acetonitrile, 304.05 K | 0.0733
in acetonitrile, 308.15 K | 0.0887
in acetonitrile, 312.65 K | 0.107
in acetonitrile, 316.25 K | 0.123
in ethanol, 288.25 K | 0.00512
in ethanol, 291.95 K | 0.00652
in ethanol, 296.25 K | 0.00812
in ethanol, 300.35 K | 0.00941
in ethanol, 303.65 K | 0.0109
in ethanol, 308.55 K | 0.0135
in ethanol, 312.65 K | 0.0176
in ethanol, 316.15 K | 0.0217
in ethyl acetate, 288.45 K | 0.0499
in ethyl acetate, 292.45 K | 0.0571
in ethyl acetate, 295.95 K | 0.0646
in ethyl acetate, 300.25 K | 0.0714
in ethyl acetate, 304.05 K | 0.081
in ethyl acetate, 307.95 K | 0.0938
in ethyl acetate, 312.25 K | 0.109
in ethyl acetate, 316.35 K | 0.128
in ethyl formate, 288.05 K | 0.0536
in ethyl formate, 291.95 K | 0.061
in ethyl formate, 296.15 K | 0.067
in ethyl formate, 300.05 K | 0.0765
in ethyl formate, 304.15 K | 0.0894
in ethyl formate, 308.45 K | 0.104
in ethyl formate, 312.45 K | 0.119
in ethyl formate, 315.85 K | 0.135
in isopropanol, 288.05 K | 0.00448
in isopropanol, 292.35 K | 0.0056
in isopropanol, 296.55 K | 0.00709
in isopropanol, 300.15 K | 0.00876
in isopropanol, 304.65 K | 0.0105
in isopropanol, 308.15 K | 0.0127
in isopropanol, 312.35 K | 0.0168
in isopropanol, 315.65 K | 0.0202
in methanol, 288.05 K | 0.00588
in methanol, 292.35 K | 0.00716
in methanol, 296.05 K | 0.00781
in methanol, 300.15 K | 0.0104
in methanol, 303.95 K | 0.0113
in methanol, 308.55 K | 0.0149
in methanol, 312.15 K | 0.0174
in methanol, 316.05 K | 0.022
in n-pentanol, 287.75 K | 0.00604
in n-pentanol, 291.95 K | 0.00758
in n-pentanol, 296.25 K | 0.00959
in n-pentanol, 300.35 K | 0.0117
in n-pentanol, 304.15 K | 0.0148
in n-pentanol, 308.35 K | 0.0189
in n-pentanol, 312.15 K | 0.0233
in n-pentanol, 315.95 K | 0.0284
in n-propanol, 287.95 K | 0.00523
in n-propanol, 292.65 K | 0.00657
in n-propanol, 296.35 K | 0.00836
in n-propanol, 300.55 K | 0.00974
in n-propanol, 304.35 K | 0.0118
in n-propanol, 308.15 K | 0.0143
in n-propanol, 312.65 K | 0.0187
in n-propanol, 316.35 K | 0.0224
